Measurements as given in patent publication US5627173A, “Phosphonoacetic acid derivatives and their use for treating degenerative joint disorders” (Hoechst Aktiengesellschaft, priority 1995, dated 1997).
In brackets after ≈: the same amount, converted by molar mass.

Legend:
[1] = system: isolated guinea pig trachea; test: Antagonism of PGF2α-induced contraction of the isolated guinea pig trachea; details: Cavia porcellus; agonist PGF2α; read-out: Anticontractile effect (trachea), concentration range needed to bring about a dilatation corresponding to the ED50 range
Description: (§1) The compounds according to the invention are used as antagonists of the contraction of various parts of organs, in this case the isolated guinea pig trachea. The agonists used were KCl, PGF2a, calcium ionophore A23187 and substance P:
Inhibition of contractions induced by this cyclooxygenase product is possible only by competitive antagonism at the receptor or of the downstream signal pathway.
(§2) The guinea pigs were sacrificed by lethal anesthesia with laughing gas. The trachea was dissected out over its entire length and cut into 15 individual cartilage rings. In each case five rings were connected together to form a chain and fixed in an organ bath under a preload of 3 g. After an equilibration period of 45 minutes, a contraction was induced with the agonist. Cumulative addition of the antagonist (test product) took place at the plateau 5 of the maximum. Evaluation took place as % change in strength based on the maximum contraction. The test was carried out at 37° C., and the physiological nutrient solution used was a modified Krebs-Henseleit solution through which 95% by volume 02 and 5% by volume CO2 was bubbled.
(§3) Test animals: Albino guinea pigs (102), weight: 200 to 300 g, male or female
(§4) Composition of the organ bath (nutrient solution):
(§5) Vehicle: Double-distilled water, ethanol or isopropanol; Administration: into the organ bath Number of administrations: cumulative, single doses for SP

[2] = system: isolated guinea pig trachea; test: Antagonism of KCl-induced contraction of the isolated guinea pig trachea; details: Cavia porcellus; agonist KCl; read-out: Anticontractile effect (trachea), concentration range needed to bring about a dilatation corresponding to the ED50 range
Description: as §1
Products with a non-specific effect generally show a spasmolytic effect with respect to all agonists. KCI is representative here of non-specific, receptor-independent contraction because KCl-induced contractions are produced predominantly physically, that is to say by increasing the K+ concentration in the outside medium, and change the resting potential of the cell.
as §2, §3, §4, §5

phosphodiesterase III = test: Inhibition of phosphodiesterase III activity; format: biochemical; details: 100 μM
Experimental: The test was carried out with the phosphodiesterase of Boehringer Mannheim (Mannheim, Germany), Order no. 108 243 by the method of T. SAEKI, I. SAITO, Biochem. Pharm. 46, No. 5, […], pages 833-839.

[3] = system: isolated strips of guinea pig lung; test: Antagonism of LTD4-induced contraction of isolated strips of guinea pig lung; details: Cavia porcellus; agonist LTD4; read-out: Anticontractile effect (lung), concentration range corresponding to the IC50 value
Description: (§6) The test was based on the same principle as the test indicated in Pharmacological Test 5; however, strips of lung were used in this case.
(§7) The guinea pig was sacrificed under anesthesia with laughing gas. The entire lung tract was cut out starting from the trachea. The lobes of the lungs were cut in circular fashion to produce strips about 3 mm wide. The strips of the upper lobes were divided up in order to obtain a total of six strips of approximately equal size. The strips were suspended in the organ baths under a preload of 4 g. Modified Krebs-Henseleit solutions were used as nutrient solution. When platelet activating factor (PAF) was used as agonist, the composition of this solution corresponded to that for the agonist SP in Pharmacological Test 5; a Krebs-Henseleit solution as in the case of the agonist KCI (Pharm. Test 5) was used for the agonist LTD4. 95% by volume 02, 5% by volume CO2 was bubbled through the bath, and the bath temperature was 37° C. The test is carried out by a therapeutic/cumulative method with dose levels of 1, 3, 6 and 10 μg/ml.
(§8) The test animals, organ bath, vehicle, mode of administration corresponded to that stated for Pharmacological Test 5.

[4] = system: isolated guinea pig trachea; test: Antagonism of calcium ionophore A23187-induced contraction of the isolated guinea pig trachea; details: Cavia porcellus; agonist Ca ionophore A23187; read-out: Anticontractile effect (trachea), concentration range needed to bring about a dilatation corresponding to the ED50 range
Description: as §1
c) Calcium ionophore A23187 (Calbiochem, Bad Soden) brings about, due to increased uptake of calcium ions, an activation of all calcium-dependent signal cascades in the cell.
as §2, §3, §4, §5

RAW 264.7 cells [5] = test: Release of tumor necrosis factor α from RAW 264.7 cells; format: cell-based; details: Mus musculus, RAW264.7, LPS, read-out: inhibition of TNFα formation compared with an untreated control
Experimental: (§9) Culture medium: DMEM+10% FCS+penicillin/streptomycin (50 U/SO μg/ml)
(§10) Culture conditions: 37° C., 10% CO2
(§11) Culture dishes: 24-well dishes
(§12) In each case 10^6 cells/ml/well were incubated for 24 hours (h)
(§13) Addition of 10 μl of test substance (=100 μM in the test, dissolved in double-distilled water)
Addition of 50 μl of lipopolysaccharide (LPS) from E. coli (=10 pg/ml in the test, dissolved in culture medium) […]
Tumor necrosis factor α was determined using a Factortest X mouse TNFα ELISA kit from Genzyme (R(1sselsheim, Geromany), Order no. 80-2802-00.

[6] = system: isolated strips of guinea pig lung; test: Antagonism of PAF-induced contraction of isolated strips of guinea pig lung; details: Cavia porcellus; agonist PAF; read-out: Anticontractile effect (lung), concentration range corresponding to the IC50 value
Description: as §6, §7, §8

[7] = system: isolated guinea pig trachea; test: Antagonism of substance P-induced contraction of the isolated guinea pig trachea; details: Cavia porcellus; agonist substance P; read-out: Anticontractile effect (trachea), concentration range needed to bring about a dilatation corresponding to the ED50 range
Description: as §1
Antagonism is possible on the one hand by specific receptor antagonists, and on the other hand by inhibition of the downstream signal pathway.
as §2, §3, §4, §5

RAW 264.7 cells [8] = test: Release of substance P from RAW 264.7 cells; format: cell-based; details: Mus musculus, RAW264.7, stimulated by 50 ng of LPS for 4 hours, read-out: inhibition of substance P production
Experimental: as §9, §10, §11, §12, §13
Release of substance P took place as described for TNFα, but the cells were stimulated by 50 ng of LPS for 4 hours. Substance P was determined using a substance P RIA test kit from Peninsula Laboratories (Belmont, USA) Test no. RIK-7451.

interleukin-1β = test: Inhibition of release of interleukin-1β from human mononuclear cells; format: cell-based; details: 10 .parallel.mol/l (so in the source), IL-1β, LPS-stimulated, 20 to 22 hours
Experimental: Obtaining mononuclear cells from human blood: 10 ml of human blood stabilized with 1 ml of 3.8 percent sodium citrate solution were diluted with 10 ml of PM16 (Serra, Heidelberg), and an underlayer of 15 ml of Lymphoprep (Dr. Molter GmbH, Heidelberg) was introduced. The samples were centrifuged at 400 x g (Minifuge 2 Heraeus, Osterode) at room temperature for 40 minutes. The mononuclear cells were visible as a white ring at the Lymphoprep/plasma boundary. This ring was cautiously removed with a syringe, diluted with the same volume of PM16 and centrifuged at 400 x g for 10 minutes. The precipitate was washed with ^~ 10 ml of RPMI1640 (+300 mg/I L-glutamine, Gibco, Eggenstein). After the cells had been suspended in ^~ 1 ml of RPMI1640 (+300 mg/I L-glutamine, +25 mM HEPES, +100 μg/ml streptomycin, +100 μg/ml penicillin), the cell density was determined with a JT Coulter Counter (Coulter Diagnostics) and adjusted to 5.10^6 /ml. 90% of the resulting cells were lymphocytes and 10% were monocytes.
Inhibition of release of interleukin-1β: 230 μl of mononuclear cells were incubated with 10 μl of test substance (10 μM in dimethyl sulfoxide (DMSO)/water=1/10) and 10 μl of a lipopolysaccharide solution (500 μg dissolved in 1 ml of DMSO and diluted 1/10 with water before starting the test, from Salmonella abortus equi, (Sigma, Deisenhofen) at 37° C., 5% CO2 for 20 to 22 hours. The samples were cooled to 0° C. in an ice bath and centrifuged in a Sigma centrifuge (2 minutes; 2000 revolutions per minute (rpm)). Aliquots of the supernatant were determined using a commercially available ELISA 5(Biermann, Bad Nauheim).
All active substances were tested at a concentration of 10 .parallel.mol/l. IL-1β release was tested in each case.

rat liver microsomes = test: Inhibition of microsomal lipid peroxidation; format: biochemical; details: 37° C., 10 minutes
Experimental: Obtaining rat liver microsomes: All steps were carried out at 0° C. The liver from a rat was thoroughly rinsed with 0.9% NaCl solution to remove all the hemoglobin. The liver wascut into pieces and then treated in a Potter in 10 mM Tris/HCl pH 7.4; 250 mM sucrose (10 ml of buffer/g of liver). The first centrifugation was at 600 x g for 55 minutes to remove cell detritus. The supernatant was then centrifuged at 12000 x g for 10 minutes and was adjusted with solid CaCI2 (117.6 mg/100 ml) to a concentration of 8 mM. A microsome pellet was obtained by centrifugation at 25000 x g (15 minutes). This pellet was ohomogenized in the same volume of buffer (10 mM Tris/BCI pH 7.4; 150 mMKCl) and again centrifuged at 25000 x g for 15 minutes.
Peroxidation by rat liver microsomes: A test mixture consisted of 20 μl of microsomes (100 mg/ml), see above, dissolved in a buffer (250 mM Tris/HCI pB 6.6; 750 mMKCl), 10 iL1 of 50 mM MgCI2, 10 μl of 200 mM isocitric acid, 10 μl of 4 mM NADP (3.028 mg/ml in water), 10 μl of 25 mM niacinamide, 10 μl of isocitrate dehydrogenase (Boehringer, diluted 1:100) and 20 μl of water or test substance. The reaction was started with 10 μl of 0.25 mM FeSO4. […] The malonaldehyde which was formed was converted by adding 500 μl of 0.67 percent thiobarbituric acid and incubating at 90° C. for 30 min into a pink-colored compound which was measured in a photometer at 532 nm. […]

matrix metalloproteases = test: Inhibition of matrix metalloproteases (MMP from rabbit synoviocytes HIG-82, fluorescent substrate); format: biochemical
Experimental: After confluent cell growth, the MMP expression was induced in the serum-free 3F12 HAM medium by adding 0.3 μmol/l phorbol 12-myristate 13-acetate. The supernatant was removed after incubating at 37° C. for 20 hours.
Activation of the MMP: The supernatant was activated with trypsin (5 μg/ml). After 15 minutes at 37° C., the activation was stopped by adding 1 mmol/l phenylmethylsulfonyl fluoride (PMSF) and incubating for a further 10 minutes. The total volume of the mixture was 210 μl.
The test substance was added in the stated concentration (see table). […] The reaction was stopped after 30 minutes by adding 10 mmol/l EDTA. The total-volume of the mixture was 320 μl . The parameters measured were the fluorescence intensities at […]. In order to take account of the possible intrinsic fluorescence of the test substances, the fluorescence intensities from parallel measurements without substrate were subtracted from the measurements with substrate. All the steps took place at 20° C.

Wistar-Lewis rats = test: Adjuvant arthritis; format: in vivo; details: 12.6 mg/kg intraperitoneal, twice a day for 18 days
Experimental: The investigations were carried out as described in EP 50 42 740.

Structure (SMILES)	EC50 [1] [µg/mL]	EC50 [2] [µg/mL]	inhibition of enzyme activity (phosphodiesterase III) (phosphodiesterase III) [%]	IC50 [3] [µg/mL]	EC50 [4] [µg/mL]	inhibition at 100 µM (RAW 264.7 cells [5]; incubation for 2.5 hours) [%]	IC50 [6] [µg/mL]	EC50 [7] [µg/mL]	inhibition at 100 µM (RAW 264.7 cells [8]) [%]	inhibition at 10 µM (interleukin-1β) [%]	IC50 (rat liver microsomes) [nM]	Inhibition of MMP, Inhibition (%) (matrix metalloproteases; 10 μM)	Inhibition of MMP, Inhibition (%) (matrix metalloproteases; 30 μM)	Inhibition of MMP, Inhibition (%) (matrix metalloproteases; 100 μM)	inhibition at 100 µM (RAW 264.7 cells [5]; incubation for 4 h) [%]	inhibition of the increase in the paw volume compared with an untreated control group (Wistar-Lewis rats) [%]
CCOP(=O)(OCC)/C(C#N)=C\c1ccc(OC)c(OC)c1 [Compound 37, Z- and E-2-(diethoxyphosphinyl)-3-(3,4-dimethoxyphenyl) acrylonitrile]	~3 (≈ 9.22 µM)	~10 (≈ 30.7 µM)	39	0.1 to 0.3 (≈ 0.307 to 0.922 µM)	~1 (≈ 3.07 µM)	55	1 to 3 (≈ 3.07 to 9.22 µM)	~3 (≈ 9.22 µM)	100	–	–	–	–	–	–	–
CCOC(=O)C(=Cc1ccc(O)c(O)c1)P(=O)(OCC)OCC [Compound 47, Ethyl 2-(diethoxyphosphinyl)-3-(3,4-dihydroxyphenyl) propenoate]	–	–	–	–	–	–	–	–	–	80	2100	13	24	55	–	–
CCOP(=O)(OCC)/C(C#N)=C/c1ccc(OC)c(OC)c1 [Compound 38, Z- and E-2-(diethoxyphosphinyl)-3-(3,4-dimethoxyphenyl) acrylonitrile]	1 to 3 (≈ 3.07 to 9.22 µM)	> 10	–	~1 (≈ 3.07 µM)	~3 (≈ 9.22 µM)	–	< 0.1	3 to 10 (≈ 9.22 to 30.7 µM)	100	–	–	–	–	–	16	98
